PubChem BioAssay (NCI)
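96-well plates; 48 h exposure; 5 concentrations. Endpoints by linear interpolation between flanking doses. Not reached: highest tested concentration assigned. The concentration for full growth arrest is given as TGI.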

How the values were obtained:
Experiment in all cases: growth of human tumour cells (NCI), 48 h
CAKI-1 renal = test system: CAKI-1 renal
HT29 colon = test system: HT29 colon
HCC-2998 colon = test system: HCC-2998 colon
RPMI-8226 leukemia = test system: RPMI-8226 leukemia
OVCAR-8 ovarian = test system: OVCAR-8 ovarian
SK-MEL-28 melanoma = test system: SK-MEL-28 melanoma
XF 498 CNS = test system: XF 498 CNS
RXF-631 renal = test system: RXF-631 renal
HOP-62 NSCLC = test system: HOP-62 NSCLC
DLD-1 colon = test system: DLD-1 colon
HCT-15 colon = test system: HCT-15 colon
786-0 renal = test system: 786-0 renal
IGROV1 ovarian = test system: IGROV1 ovarian
NCI-H226 lung = test system: NCI-H226 lung
OVCAR-5 ovarian = test system: OVCAR-5 ovarian
HOP-92 NSCLC = test system: HOP-92 NSCLC
OVCAR-4 ovarian = test system: OVCAR-4 ovarian
SNB-78 CNS = test system: SNB-78 CNS
CCRF-CEM leukemia = test system: CCRF-CEM leukemia
SF-539 CNS = test system: SF-539 CNS
SF-268 CNS = test system: SF-268 CNS
ACHN renal = test system: ACHN renal
SK-OV-3 ovarian = test system: SK-OV-3 ovarian
UACC-62 melanoma = test system: UACC-62 melanoma
SR leukemia = test system: SR leukemia
M14 melanoma = test system: M14 melanoma
KM12 colon = test system: KM12 colon
COLO 205 colon = test system: COLO 205 colon
OVCAR-3 ovarian = test system: OVCAR-3 ovarian
SK-MEL-2 melanoma = test system: SK-MEL-2 melanoma
U251 CNS = test system: U251 CNS
SK-MEL-5 melanoma = test system: SK-MEL-5 melanoma
SNB-75 CNS = test system: SNB-75 CNS
HCT-116 colon = test system: HCT-116 colon
SN12C renal = test system: SN12C renal
KM20L2 colon = test system: KM20L2 colon
SF-295 CNS = test system: SF-295 CNS
UACC-257 melanoma = test system: UACC-257 melanoma
NCI-H460 lung = test system: NCI-H460 lung
TK-10 renal = test system: TK-10 renal
HOP-18 NSCLC = test system: HOP-18 NSCLC
M19-MEL melanoma = test system: M19-MEL melanoma
NCI-H23 lung = test system: NCI-H23 lung
NCI-H522 lung = test system: NCI-H522 lung
MALME-3M melanoma = test system: MALME-3M melanoma
LXFL 529 NSCLC = test system: LXFL 529 NSCLC
A498 renal = test system: A498 renal
EKVX NSCLC = test system: EKVX NSCLC
SNB-19 CNS = test system: SNB-19 CNS
MOLT-4 leukemia = test system: MOLT-4 leukemia
HL-60(TB) leukemia = test system: HL-60(TB) leukemia
A549 NSCLC = test system: A549 NSCLC
LOX IMVI melanoma = test system: LOX IMVI melanoma
UO-31 renal = test system: UO-31 renal
RXF 393 renal = test system: RXF 393 renal
K-562 leukemia = test system: K-562 leukemia
SW-620 colon = test system: SW-620 colon
DMS 273 small cell lung = test system: DMS 273 small cell lung
DMS 114 small cell lung = test system: DMS 114 small cell lung

NNC(=O)C(=O)NN=C(C(Cl)(Cl)CO)C(Cl)(Cl)CO
TGI (CAKI-1 renal): 97.4 µM | TGI (HT29 colon): > 100 µM | TGI (HCC-2998 colon): > 100 µM | TGI (RPMI-8226 leukemia): > 100 µM | TGI (OVCAR-8 ovarian): 57.9 µM | TGI (SK-MEL-28 melanoma): 97.9 µM | TGI (XF 498 CNS): > 100 µM | TGI (RXF-631 renal): 55.7 µM | TGI (HOP-62 NSCLC): > 100 µM | TGI (DLD-1 colon): 57.4 µM | TGI (HCT-15 colon): 75.5 µM | TGI (786-0 renal): > 100 µM | TGI (IGROV1 ovarian): > 100 µM | TGI (NCI-H226 lung): > 100 µM | TGI (OVCAR-5 ovarian): 92.2 µM | TGI (HOP-92 NSCLC): 83.7 µM | TGI (OVCAR-4 ovarian): > 100 µM | TGI (SNB-78 CNS): > 100 µM | TGI (CCRF-CEM leukemia): 61.2 µM | TGI (SF-539 CNS): 61.2 µM | TGI (SF-268 CNS): > 100 µM | TGI (ACHN renal): > 100 µM | TGI (SK-OV-3 ovarian): > 100 µM | TGI (UACC-62 melanoma): > 100 µM | TGI (SR leukemia): 50.6 µM | TGI (M14 melanoma): 94 µM | TGI (KM12 colon): > 100 µM | TGI (COLO 205 colon): > 100 µM | TGI (OVCAR-3 ovarian): 68 µM | TGI (SK-MEL-2 melanoma): > 100 µM | TGI (U251 CNS): 53.2 µM | TGI (SK-MEL-5 melanoma): > 100 µM | TGI (SNB-75 CNS): 86.8 µM | TGI (HCT-116 colon): 66.1 µM | TGI (SN12C renal): > 100 µM | TGI (KM20L2 colon): > 100 µM | TGI (SF-295 CNS): > 100 µM | TGI (UACC-257 melanoma): > 100 µM | TGI (NCI-H460 lung): > 100 µM | TGI (TK-10 renal): > 100 µM | TGI (HOP-18 NSCLC): > 100 µM | TGI (M19-MEL melanoma): 46.8 µM | TGI (NCI-H23 lung): 92.9 µM | TGI (NCI-H522 lung): 25 µM | TGI (MALME-3M melanoma): 44.4 µM | TGI (LXFL 529 NSCLC): > 100 µM | TGI (A498 renal): > 100 µM | TGI (EKVX NSCLC): > 100 µM | TGI (SNB-19 CNS): > 100 µM | TGI (MOLT-4 leukemia): 50.7 µM | TGI (HL-60(TB) leukemia): 69.6 µM | TGI (A549 NSCLC): > 100 µM | TGI (LOX IMVI melanoma): 35.3 µM | TGI (UO-31 renal): > 100 µM | TGI (RXF 393 renal): 72.7 µM | TGI (K-562 leukemia): > 100 µM | TGI (SW-620 colon): 40.3 µM | TGI (DMS 273 small cell lung): > 100 µM

O=C1C2C3C=CC(C2C(=O)N1CO)C1C2C(=O)N(CO)C(=O)C2C31 (stereo unspecified)
TGI (CAKI-1 renal): > 100 µM | TGI (HT29 colon): > 100 µM | TGI (HCC-2998 colon): > 100 µM | TGI (RPMI-8226 leukemia): 46.5 µM | TGI (OVCAR-8 ovarian): > 75.8 µM | TGI (SK-MEL-28 melanoma): > 100 µM | TGI (XF 498 CNS): > 100 µM | TGI (RXF-631 renal): > 100 µM | TGI (HOP-62 NSCLC): > 100 µM | TGI (DLD-1 colon): > 73.7 µM | TGI (HCT-15 colon): > 62.9 µM | TGI (786-0 renal): > 58.6 µM | TGI (IGROV1 ovarian): > 100 µM | TGI (NCI-H226 lung): > 100 µM | TGI (OVCAR-5 ovarian): > 100 µM | TGI (HOP-92 NSCLC): > 100 µM | TGI (OVCAR-4 ovarian): > 64.7 µM | TGI (SNB-78 CNS): > 100 µM | TGI (CCRF-CEM leukemia): > 59.3 µM | TGI (SF-539 CNS): > 100 µM | TGI (SF-268 CNS): > 79 µM | TGI (ACHN renal): > 66.6 µM | TGI (DMS 114 small cell lung): > 58.6 µM | TGI (SK-OV-3 ovarian): > 100 µM | TGI (UACC-62 melanoma): > 100 µM | TGI (SR leukemia): 45 µM | TGI (M14 melanoma): > 100 µM | TGI (KM12 colon): > 100 µM | TGI (COLO 205 colon): > 66.9 µM | TGI (OVCAR-3 ovarian): > 100 µM | TGI (SK-MEL-2 melanoma): > 100 µM | TGI (U251 CNS): > 100 µM | TGI (SK-MEL-5 melanoma): > 100 µM | TGI (SNB-75 CNS): > 100 µM | TGI (HCT-116 colon): > 59.8 µM | TGI (SN12C renal): > 100 µM | TGI (KM20L2 colon): > 31.6 µM | TGI (SF-295 CNS): > 100 µM | TGI (UACC-257 melanoma): > 100 µM | TGI (NCI-H460 lung): > 54.5 µM | TGI (TK-10 renal): > 100 µM | TGI (HOP-18 NSCLC): 76.7 µM | TGI (M19-MEL melanoma): > 100 µM | TGI (NCI-H23 lung): > 100 µM | TGI (NCI-H522 lung): > 100 µM | TGI (MALME-3M melanoma): > 100 µM | TGI (LXFL 529 NSCLC): > 100 µM | TGI (A498 renal): > 100 µM | TGI (EKVX NSCLC): > 100 µM | TGI (SNB-19 CNS): > 100 µM | TGI (MOLT-4 leukemia): > 100 µM | TGI (A549 NSCLC): > 88.4 µM | TGI (LOX IMVI melanoma): > 61.9 µM | TGI (UO-31 renal): > 100 µM | TGI (RXF 393 renal): > 100 µM | TGI (K-562 leukemia): > 82.5 µM | TGI (SW-620 colon): > 66.7 µM | TGI (DMS 273 small cell lung): > 59.1 µM
